# In patent publication US20120238767A1, “ANTIOXIDANT INFLAMMATION MODULATORS: NOVEL DERIVATIVES OF OLEANOLIC ACID” (priority 2008, published 2012):
# Key:
# [1] = tested on: IFNγ-induced NO production in RAW264.7 macrophages; assay: Suppression of IFNγ-induced NO production (Griess reagent); assay type: cell-based, mouse; details: RAW264.7, 20 ng/ml IFNγ for 24 hours, 2 hours pre-treatment
# Experimental: (§1) FIGS. 1-11 and 22. Inhibition of NO Production. RAW264.7 macrophages were pre-treated with DMSO or drugs at various concentrations (nM) for 2 hours, then treated with 20 ng/ml IFNγ for 24 hours. NO concentration in media was determined using a Griess reagent system; cell viability was determined using WST-1 reagent. Nitric Oxide production and cell viability. RAW264.7 macrophages were pre-treated with DMSO or drugs for 2 hours, then treated with recombinant mouse IFNγ (Sigma) for 24 hours. NO concentration in media was determined using the Griess reagent system (Promega). Cell viability was determined using WST-1 reagent (Roche).
# RAW264.7 macrophages = assay: Cell viability (WST-1 reagent); assay type: cell-based, mouse; details: RAW264.7, 20 ng/ml IFNγ
# Experimental: as §1
SMILES,IC50 ([1]; Mus musculus) [µM],IC50 [1] [µM],IC50 (RAW264.7 macrophages; Mus musculus) [µM],IC50 (RAW264.7 macrophages) [µM]
"COC(=O)[C@]12CCC(C)(C)C[C@H]1[C@H]1C(=O)C=C3[C@@]4(C)C=C(C(=O)NO)C(=O)C(C)(C)[C@@H]4CC[C@@]3(C)[C@]1(C)CC2 [Compound 402-07, (4aS,6aR,6bS,8aR,12aS,14aR,14b5)-methyl-11-(hydroxycarbamoyl)-2,2,6a,6b,9,9,12a-heptamethyl-10,14-dioxo-1,2,3,4,4a,5,6,6a,6b,7,8,8a,9,10,12a,14,14a,14b-octadecahydropicene-4a-carboxylate]",> 0.2,–,> 0.2,–
"COC(=O)[C@]12CCC(C)(C)C[C@H]1[C@H]1C(=O)C=C3[C@@]4(C)[C@@H](O)[C@](O)(C#N)C(=O)C(C)(C)[C@@H]4CC[C@@]3(C)[C@]1(C)CC2 [Compound 63316, (4aS,6aR,6bS,8aR,11R,12R,12aS,14aR,14bS)-methyl 11-cyano-11,12-dihydroxy-2,2,6a,6b,9,9,12a-heptamethyl-10,14-dioxo-1,2,3,4,4a,5,6,6a,6b,7,8,8a,9,10,11,12,12a,14,14a,14b-icosahydropicene-4a-carboxylate]",~0.08,–,> 0.2,–
"COC(=O)[C@]12CCC(C)(C)C[C@H]1[C@H]1C(=O)C=C3[C@@]4(C)C(C)=C(C#N)C(=O)C(C)(C)[C@@H]4CC[C@@]3(C)[C@]1(C)CC2 [Compound 402-22, (4 aS,6aR,6bS,8aR,12 aR,14 aR,14bS)-methyl-11-cyano-2,2,6a,6b,9,9,12,12a-octamethyl-10,14-dioxo-1,2,3,4,4a,5,6,6a,6b,7,8,8a,9,10,12a,14,14a,14b-octadecahydropicene-4a-carboxylate]",> 0.2,–,> 0.2,–
"COC(=O)[C@]12CCC(C)(C)C[C@H]1[C@H]1C(=O)C=C3[C@@]4(C)C=C(c5nnn[nH]5)C(=O)C(C)(C)[C@@H]4CC[C@@]3(C)[C@]1(C)CC2 [Compound 402-06, (4aS,6aR,6bS,8aR,12aS,14aR,14bS)-methyl-2,2,6a,6b,9,9,12a-heptamethyl-10,14-dioxo-11-(1H-tetrazol-5-yl)-1,2,3,4,4a,5,6,6a,6b,7,8,8a,9,10,12a,14,14a,14b-octadecahydropicene-4a-carboxylate]",> 0.2,–,> 0.2,–
"COC(=O)[C@]12CCC(C)(C)C[C@H]1[C@H]1C(=O)C=C3[C@@]4(C)CC(C#N)=C(OC(C)=O)C(C)(C)[C@@H]4CC[C@@]3(C)[C@]1(C)CC2 [Compound 402-47, (4aS,6aR,6bS,8aR,12aS,14aR,14bS)-methyl-10-acetoxy-11-cyano-2,2,6a,6b,9,9,12a-heptamethyl-14-oxo-1,2,3,4,4a,5,6,6a,6b,7,8,8a,9,12,12a,14,14a,14b-octadecahydropicene-4a-carboxylate]",> 0.2,–,> 0.2,–
"COC(=O)[C@]12CCC(C)(C)C[C@H]1[C@H]1C(=O)C=C3[C@@]4(C)C=C(C(=O)NS(C)(=O)=O)C(=O)C(C)(C)[C@@H]4CC[C@@]3(C)[C@]1(C)CC2 [Compound 402-08, (4aS,6aR,6bS,8aR,12aS,14aR,14bS)-methyl-2,2,6a,6b,9,9,12a-heptamethyl-11-(methylsulfonylcarbamoyl)-10,14-dioxo-1,2,3,4,4a,5,6,6a,6b,7,8,8a,9,10,12a,14,14a,14b-octadecahydropicene-4a-carboxylate]",0.062,–,> 0.2,–
"COC(=O)[C@]12CCC(C)(C)C[C@H]1[C@H]1C(=O)C=C3[C@@]4(C)C=C(F)C(=O)C(C)(C)[C@@H]4CC[C@@]3(C)[C@]1(C)CC2 [Compound 402-05, (4aS,6aR,6bS,8aR,12aR,14aR,14b5)-methyl-11-fluoro-2,2,6a,6b,9,9,12a-heptamethyl-10,14-dioxo-1,2,3,4,4a,5,6,6a,6b,7,8,8a,9,10,12a,14,14a,14b-octadecahydropicene-4a-carboxylate]",–,> 0.2,–,> 0.2
"COCOC[C@@]1(C)C(=O)C(C#N)=C[C@]2(C)C3=CC(=O)[C@@H]4[C@@H]5CC(C)(C)CC[C@]5(C(=O)OC)CC[C@@]4(C)[C@]3(C)CC[C@@H]12 [Compound 63302, (4aS,6aR,6bS,8aR,9S,12aS,14aR,14bS)-methyl 11-cyano-9-((methoxymethoxy)methyl)-2,2,6a,6b,9,12a-hexamethyl-10,14-dioxo-1,2,3,4,4a,5,6,6a,6b,7,8,8a,9,10,12a,14,14a,14b-octadecahydropicene-4a-carboxylate]",~0.018,–,~0.1,–
"CC1(C)CC[C@]2(C(=O)NCCO)CC[C@]3(C)[C@H](C(=O)C=C4[C@@]5(C)C=C(C#N)C(=O)C(C)(C)[C@@H]5CC[C@]43C)[C@@H]2C1 [Compound 402-40, (4aS,6aR,6bS,8aR,12aS,14aR,14bS)-11-cyano-N-(2-hydroxyethyl)-2,2,6a,6b,9,9,12a-heptamethyl-10,14-dioxo-1,2,3,4,4a,5,6,6a,6b,7,8,8a,9,10,12a,14,14a,14b-octadecahydropicene-4a-carboxamide]",0.017,–,0.075,–
"COC(=O)[C@]12CCC(C)(C)C[C@H]1[C@H]1C(=O)C=C3[C@@]4(C)C=C(C#N)C(=O)C(C)(C)[C@@H]4[C@H](O)C[C@@]3(C)[C@]1(C)CC2 [Compound 63307, (4aS,6aR,6bS,8R,8aR,12aS,14aR,14bS)-methyl 11-cyano-8-hydroxy-2,2,6a,6b,9,9,12a-heptamethyl-10,14-dioxo-1,2,3,4,4a,5,6,6a,6b,7,8,8a,9,10,12a,14,14a,14b-octadecahydropicene-4a-carboxylate]",~0.06,–,> 0.2,–

# The remaining compounds from weak to strong by IC50 ([1]; Mus musculus), led by results:
IC50 ([1]; Mus musculus) [µM],IC50 [1] [µM],SMILES,IC50 (RAW264.7 macrophages; Mus musculus) [µM],IC50 (RAW264.7 macrophages) [µM]
~0.012,–,"COC(=O)[C@]12CCC(C)(C)C[C@H]1[C@H]1C(=O)C=C3[C@@]4(C)C=C(C(F)(F)F)C(=O)C(C)(C)[C@@H]4CC[C@@]3(C)[C@]1(C)CC2 [Compound 63320, (4aS,6aR,6bS,8aR,12aS,14aR,14bS)-methyl 2,2,6a,6b,9,9,12a-heptamethyl-10,14-dioxo-11-(trifluoromethyl)-1,2,3,4,4a,5,6,6a,6b,7,8,8a,9,10,12a,14,14a,14b-octadecahydropicene-4a-carboxylate]",–,–
~0.012,–,"COC(=O)[C@]12CCC(C)(C)C[C@H]1[C@H]1C(=O)C=C3[C@@]4(C)C=C(C#N)C(=O)C(C)(C)[C@@H]4C(=O)C[C@@]3(C)[C@]1(C)CC2 [Compound 63309, (4aS,6aR,6bS,8aR,12aS,14aR,14bS)-methyl 11-cyano-2,2,6a,6b,9,9,12a-heptamethyl-8,10,14-trioxo-1,2,3,4,4a,5,6,6a,6b,7,8,8a,9,10,12a,14,14a,14b-octadecahydropicene-4a-carboxylate]",> 0.2,–
0.0042,–,"CC1(C)CC[C@]2(C(=O)NO)CC[C@]3(C)[C@H](C(=O)C=C4[C@@]5(C)C=C(C#N)C(=O)C(C)(C)[C@@H]5CC[C@]43C)[C@@H]2C1 [Compound 402-09, (4aS,6aR,6bS,8aR,12aS,14aR,14bS)-11-cyano-N-hydroxy-2,2,6a,6b,9,9,12a-heptamethyl-10,14-dioxo-1,2,3,4,4a,5,6,6a,6b,7,8,8a,9,10,12a,14,14a,14b-octadecahydropicene-4a-carboxamide]",> 0.2,–
~0.0032,–,"COC(=O)[C@]12CCC(C)(C)C[C@H]1[C@H]1C(=O)C=C3[C@@]4(C)C=C(C#N)C(=O)[C@](C)(CO)[C@@H]4CC[C@@]3(C)[C@]1(C)CC2 [Compound 63301, (4aS,6aR,6bS,8aR,9S,12aS,14aR,14b5)-methyl 11-cyano-9-(hydroxymethyl)-2,2,6a,6b,9,12a-hexamethyl-10,14-dioxo-1,2,3,4,4a,5,6,6a,6b,7,8,8a,9,10,12a,14,14a,14b-octadecahydropicene-4a-carboxylate]",~0.12,–
~0.003,–,"CC1(C)CC[C@]2(C(=O)F)CC[C@]3(C)[C@H](C(=O)C=C4[C@@]5(C)C=C(C#N)C(=O)C(C)(C)[C@@H]5CC[C@]43C)[C@@H]2C1 [Compound 402-55, (4aS,6aR,6bS,8aR,12aS,14aR,14bS)-11-cyano-2,2,6a,6b,9,9,12a-heptamethyl-10,14-dioxo-1,2,3,4,4a,5,6,6a,6b,7,8,8a,9,10,12a,14,14a,14b-octadecahydropicene-4a-carbonyl fluoride]",0.1,–
0.0025,–,"CC1(C)CC[C@]2(C(=O)N=[N+]=[N-])CC[C@]3(C)[C@H](C(=O)C=C4[C@@]5(C)C=C(C#N)C(=O)C(C)(C)[C@@H]5CC[C@]43C)[C@@H]2C1 [Compound 402-11, (4aS,6aR,6bS,8aR,12aS,14aR,14bS)-11-cyano-2,2,6a,6b,9,9,12a-heptamethyl-10,14-dioxo-1,2,3,4,4a,5,6,6a,6b,7,8,8a,9,10,12a,14,14a,14b-octadecahydropicene-4a-carbonyl azide]",0.15,–
0.0023,–,"CONC(=O)[C@]12CCC(C)(C)C[C@H]1[C@H]1C(=O)C=C3[C@@]4(C)C=C(C#N)C(=O)C(C)(C)[C@@H]4CC[C@@]3(C)[C@]1(C)CC2 [Compound 402-10, (4aS,6aR,6bS,8aR,12aS,14aR,14bS)-11-cyano-N-methoxy-2,2,6a,6b,9,9,12a-heptamethyl-10,14-dioxo-1,2,3,4,4a,5,6,6a,6b,7,8,8a,9,10,12a,14,14a,14b-octadecahydropicene-4a-carboxamide]",> 0.2,–
